`Cc1cc(-c2cccc(Cl)c2)c2cc(C(O)(c3ccc(Cl)cc3)c3nncn3C)ccc2n1.O` (centres unmarked) (hydrate or solvate) displayed a melting point of 150 °C. As for `Cn1cncc1C(O)(c1ccc(Cl)cc1)c1ccc2nc(C=NO)cc(-c3cccc(Cl)c3)c2c1` (racemic) [Example B1, (±)-4-(3-chlorophenyl)-6-[(4-chlorophenyl)hydroxy(1-methyl-1H-imidazol-5-yl)methyl]-2-quinolinecarboxaldehyde, oxime], the melting point came to 205 °C. As for `Cn1cncc1C(O)(c1ccc(Cl)cc1)c1ccc2nc(/C=C/C(N)=O)cc(-c3cccc(Cl)c3)c2c1` (racemic) [Example B11, (±)-(E)-3-[4-(3-chlorophenyl)-6-[(4-chlorophenyl)hydroxy(1-methyl-1H-imidazol-5-yl)methyl]-2-quinolinyl]-2-propenamide], the melting point turned out to be 80 °C. With `Cn1cncc1-c1nc(-c2cccc(Cl)c2)c2cc(C(O)(c3ccc(Cl)cc3)c3cncn3C)ccc2n1` (stereo not drawn) [Example B6, 4-(3-chlorophenyl)-α-(4-chlorophenyl)-α,2-bis(1-methyl-1H-imidazol-5-yl)-6-quinazolinemethanol] the figure was 160 °C; with `Cc1nc(-c2cccc(Cl)c2)c2cc(C(O)(c3ccc(Cl)cc3)c3cncn3C)ccc2n1` (stereo not drawn) [Example B13, 4-(3-chlorophenyl)-α-(4-chlorophenyl)-2-methyl-α-(1-methyl-1H-imidazol-5-yl)-6-quinazolinemethanol], 223 °C; with `Cc1cc(-c2cccc(Cl)c2)c2cc(C(O)(c3ccc(Cl)cc3)c3nnc(S)n3C)ccc2n1` (stereo not drawn) [Example B14a, 4-(3-chlorophenyl)-α-(4-chlorophenyl)-α-(5-mercapto-4-methyl-4H-1,2,4-triazol-3-yl)-2-methyl-6-quinolinemethanol], 166 °C. `CSc1nnc(C(O)(c2ccc(Cl)cc2)c2ccc3nc(C)cc(-c4cccc(Cl)c4)c3c2)n1C` (stereo not drawn) [Example B14b, 4-(3-chlorophenyl)-α-(4-chlorophenyl)-2-methyl-α-[4-methyl-5-(methylthio)-4H-1,2,4-triazol-3-yl]-6-quinolinemethanol] showed a melting point of 142 °C. The compound `CSc1nnc(C(N)(c2ccc(Cl)cc2)c2ccc3nc(C)cc(-c4cccc(Cl)c4)c3c2)n1C` (stereo not drawn) [Example B16b, 4-(3-chlorophenyl)-α-(4-chlorophenyl)-2-methyl-α-[4-methyl-5-(methylthio)-4H-1,2,4-triazol-3-yl]-6-quinolinemethanamine] came in with a melting point of 128 °C. Turning to `Cn1cncc1C(O)(c1ccc(Cl)cc1)c1ccc2nc(N)nc(-c3cccc(Cl)c3)c2c1` (stereo not drawn) [Example B19, 2-amino-4-(3-chlorophenyl)-α-(4-chlorophenyl)-α-(1-methyl-1H-imidazol-5-yl)-6-quinazolinemethanol], the melting point stood at 235 °C. As for `Cn1cncc1C(O)(c1ccc(Cl)cc1)c1ccc2nc(C#Cc3ccccc3)cc(-c3cccc(Cl)c3)c2c1` (stereo not drawn) [Example B25, 4-(3-chlorophenyl)-α-(4-chlorophenyl)-α-(1-methyl-1H-imidazol-5-yl)-2-(phenylethynyl)-6-quinolinemethanol], the melting point is 154 °C. For the compound `Cn1cncc1C(O)(c1ccc(Cl)cc1)c1ccc2nc(-c3cccnc3)nc(-c3cccc(Cl)c3)c2c1` (stereo not drawn) [Example B26, 4-(3-chlorophenyl)-α-(4-chlorophenyl)-α-(1-methyl-1H-imidazol-5-yl)-2-(3-pyridinyl)-6-quinazolinemethanol], the melting point turned out to be 178 °C.

As a reminder, the melting point is the temperature, or range, at which the solid turns liquid.

The record behind these values is patent US7053105B2, “Farnesyl transferase inhibiting quinoline and quinazoline derivatives as farnesyl transferase inhibitors” (Janssen Pharmaceutica, N.V., priority 2000, dated 2006).
